Several values for one entry are separate records, joined by “and”; a condition that tells them apart may be missing. Equal entries are not always repeated. Entries after “also recorded” stand apart in the source; their conditions may differ. Where two headings read alike, the source gives them in different places.
What was measured:
[1] = biological target: DRD2 (D2 long receptor) wild-type (Homo sapiens, UniProt P14416); assay: Radioligand competition binding, [3H]-N-methylspiperone, HEK293T membranes
[2] = biological target: DRD3 wild-type (Homo sapiens, UniProt P35462); assay: Radioligand competition binding, [3H]-N-methylspiperone
[3] = biological target: T1, DRD4 (D4.4 variant) wild-type (Homo sapiens, UniProt P21917); assay: as above; details: DRD4; [3H]-methylspiperone (0.8-1.0 nM); read-out: Ki
T1 sequence (P21917 1-419): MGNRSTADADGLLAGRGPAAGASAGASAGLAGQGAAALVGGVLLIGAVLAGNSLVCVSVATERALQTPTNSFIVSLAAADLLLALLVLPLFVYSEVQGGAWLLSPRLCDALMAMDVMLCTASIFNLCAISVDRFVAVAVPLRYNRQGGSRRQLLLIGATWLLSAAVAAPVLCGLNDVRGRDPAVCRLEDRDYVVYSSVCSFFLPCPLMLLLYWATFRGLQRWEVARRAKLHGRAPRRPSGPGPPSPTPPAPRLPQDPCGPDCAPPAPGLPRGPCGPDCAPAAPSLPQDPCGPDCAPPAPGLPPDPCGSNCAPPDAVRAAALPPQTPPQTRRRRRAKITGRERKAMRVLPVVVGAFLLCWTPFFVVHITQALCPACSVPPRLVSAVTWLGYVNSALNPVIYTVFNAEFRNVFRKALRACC

[4] = biological target: T2, DRD3 F1063.28A (Homo sapiens, UniProt P35462, F106A); assay: biochemical; assay type: binding
[5] = biological target: T3, DRD2 (D2 long receptor) (Homo sapiens, UniProt P14416); assay: Gαi/o-mediated cAMP inhibition (GloSensor split-luciferase cAMP reporter), HEK293T; assay type: cell-based; details: for response, Fig_S11d dose-response source data: replicate values;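 for all read-outs here: compounds applied 15 min at room temperature, then luciferin plus 400 nM isoproterenol to raise cAMP through endogenous β2-adrenergic receptors, luminescence read 15 min later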
[6] = biological target: T4, DRD4 (D4.4 variant) (Homo sapiens, UniProt P21917); assay: Gαi/o-mediated cAMP inhibition (GloSensor); assay type: cell-based; details: DRD4; agonist, cAMP inhibition; read-out: EC50 ± SEM
T4 sequence (P21917 1-419): T1 sequence (P21917 1-419)

[7] = biological target: T5, DRD2 F1103.28L (Homo sapiens, UniProt P14416, F110L); assay: Gαi/o-mediated cAMP inhibition (GloSensor), mutant; assay type: cell-based; details: DRD2 F1103.28L (b138 head prints DRD2 F1063.28L)
T5 construct: expressed in transfected cells; host or cells: HEK293T (ATCC CRL-11268)

[8] = biological target: T3, DRD2 (D2 long receptor); assay: β-arrestin2 recruitment (Tango), HTLA cells; assay type: cell-based
[9] = biological target: DRD3 (Homo sapiens, UniProt P35462); assay: β-arrestin2 recruitment (Tango); assay type: cell-based; details: DRD3; Tango; read-out: EC50 ± SEM
[10] = biological target: T4, DRD4 (D4.4 variant); assay: β-arrestin2 recruitment (Tango); assay type: cell-based; details: DRD4; Tango; read-out: EC50 ± SEM
[11] = biological target: T5, DRD2 F1103.28L; assay: β-arrestin2 recruitment (Tango), mutant; assay type: cell-based
[12] = biological target: T2, DRD3 F1063.28A; assay: cell-based; assay type: cell-based; details: DRD3 F1063.28A; Tango; read-out: EC50 ± SEM
[13] = biological target: T6, DRD2 F1103.28A (Homo sapiens, UniProt P14416, F110A); assay type: binding; parameters: expressed in transfected cells; host or cells: HEK293T (ATCC CRL-11268)
[14] = biological target: T6, DRD2 F1103.28A; assay: Gαi/o-mediated cAMP inhibition (GloSensor), mutant; assay type: cell-based; parameters: expressed in transfected cells; host or cells: HEK293T (ATCC CRL-11268)
[15] = biological target: T6, DRD2 F1103.28A; assay: β-arrestin2 recruitment (Tango), mutant; assay type: cell-based; parameters: expressed in transfected cells; host or cells: HEK293T (ATCC CRL-11268)
[16] = biological target: T6, DRD2 F1103.28A; details: previous published studies; cited from earlier work

T6 sequence (P14416 whole entry F110A): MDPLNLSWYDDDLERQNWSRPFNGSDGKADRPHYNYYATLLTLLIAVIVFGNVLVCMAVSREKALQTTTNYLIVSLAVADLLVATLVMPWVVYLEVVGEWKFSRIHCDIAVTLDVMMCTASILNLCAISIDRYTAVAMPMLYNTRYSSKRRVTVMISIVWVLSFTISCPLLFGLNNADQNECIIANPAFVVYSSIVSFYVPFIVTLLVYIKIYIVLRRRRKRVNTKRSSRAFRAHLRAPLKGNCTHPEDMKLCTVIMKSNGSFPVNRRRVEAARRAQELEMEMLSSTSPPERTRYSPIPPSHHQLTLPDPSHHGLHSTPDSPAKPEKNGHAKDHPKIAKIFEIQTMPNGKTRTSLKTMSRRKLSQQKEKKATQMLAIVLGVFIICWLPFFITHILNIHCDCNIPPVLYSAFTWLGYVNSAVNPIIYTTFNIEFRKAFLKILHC
T3 sequence (P14416 whole entry): as the sequence (P14416 whole entry F110A) above, with A110F counted along it
T2 sequence (P35462 whole entry F106A): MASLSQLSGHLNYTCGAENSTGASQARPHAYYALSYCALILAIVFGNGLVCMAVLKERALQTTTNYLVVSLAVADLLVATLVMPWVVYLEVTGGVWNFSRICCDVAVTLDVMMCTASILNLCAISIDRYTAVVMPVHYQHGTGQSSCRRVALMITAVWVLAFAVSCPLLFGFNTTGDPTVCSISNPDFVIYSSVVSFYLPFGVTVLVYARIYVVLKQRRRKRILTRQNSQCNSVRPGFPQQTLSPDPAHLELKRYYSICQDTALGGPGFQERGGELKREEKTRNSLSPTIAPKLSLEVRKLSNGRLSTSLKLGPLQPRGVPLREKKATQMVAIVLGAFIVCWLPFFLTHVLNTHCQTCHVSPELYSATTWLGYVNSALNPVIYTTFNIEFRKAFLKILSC
Sequence of DRD3 wild-type (P35462 whole entry): as the sequence (P35462 whole entry F106A) above, with A106F counted along it
T5 sequence (P14416 whole entry F110L): as the sequence (P14416 whole entry F110A) above, with A110L counted along it
Sequence of DRD2 (D2 long receptor) wild-type (P14416 whole entry): as the sequence (P14416 whole entry F110A) above, with A110F counted along it
Sequence of DRD3 (P35462 whole entry): as the sequence (P35462 whole entry F106A) above, with A106F counted along it

For `CCOc1cccc2cc(C(C)NCC3(O)CCCC3)oc12.Cl` (racemic) [O4LE5], the Ki ([1]; DRD2, [3H]-methylspiperone (0.8-1.0 nM), read-out: Ki) was 9.55 µM, the “pKi ± SEM” value ([1]; DRD2 wild-type) was 5.02±0.07 and the Ki ([2]; DRD3, [3H]-methylspiperone (0.8-1.0 nM), read-out: Ki) was 1.02 µM. For the same compound, the “pKi ± SEM” value ([2]; DRD3 wild-type) was 5.99±0.02, the Ki [3] was greater than 10 µM and the “pKi ± SEM” value ([4]; DRD3 F1063.28A) was 5.37±0.13. For the same compound, the Ki ([4]; DRD3 F1063.28A, read-out: Ki) was 4.27 µM, the “affinity decreased, mutant vs wild type” value ([4]; DRD3 Phe106^3.28Ala vs wild-type DRD3) was 4.19 fold and the EC50 ([5]; DRD2, agonist, Gαi/o-mediated cAMP inhibition, read-out: EC50 ± SEM) was 0.0203 ± 0.00906 µM. For the same compound, the “Emax relative to quinpirole response” value ([5]; DRD2, cAMP inhibition) was 90.02%, the “response, Fig_S11d dose-response source data” value ([5]; Log[Drug] -6.52) was 89.8047 and the “response, Fig_S11d dose-response source data” value ([5]; Log[Drug] -7) was 65.0385 and 57.9248 and 60.2207 and 80.9341 and 74.6312 and 79.279 and 82.9188 and 82.7948 and 77.3857. For the same compound, the “response, Fig_S11d dose-response source data” value ([5]; Log[Drug] -7.52) was 39.5571 and 33.4973 and 24.3511 and 57.6284 and 63.6471 and 63.1957 and 71.0585 and 72.7209 and 64.8058, the “response, Fig_S11d dose-response source data” value ([5]; Log[Drug] -8) was 9.5215 and 11.2717 and 13.7182 and 48.383 and 49.6202 and 44.9055 and 35.7008 and 48.9506 and 59.4463 and the “response, Fig_S11d dose-response source data” value ([5]; Log[Drug] -8.52) was -3.6708 and -0.0387 and -1.4878 and 27.1503 and 28.8723 and 39.8732 and 29.7954 and 40.3159 and 28.6789. For the same compound, the “response, Fig_S11d dose-response source data” value ([5]; Log[Drug] -9) was 6.661 and 7.056 and -0.9609 and 40.0738 and 31.9486 and 25.4952 and 24.1382 and 31.3586 and 28.8029, the “response, Fig_S11d dose-response source data” value ([5]; Log[Drug] -9.52) was 12.3068 and -0.3586 and -16.1104 and 30.2934 and 20.4294 and 33.0687 and 10.7891 and 20.7389 and 17.29 and the “response, Fig_S11d dose-response source data” value ([5]; Log[Drug] -10) was -16.468 and 1.297 and -13.024 and 16.0491 and 30.494 and 18.4566 and 11.0621 and 15.5283 and 8.9282. The “response, Fig_S11d dose-response source data” value ([5]; Log[Drug] -10.52) was -14.0967 and 4.779 and -14.8495 and 16.7012 and 24.0741 and 20.5632 and 2.204 and 13.0967 and 9.052, the “response, Fig_S11d dose-response source data” value ([5]; Log[Drug] -11) was -2.7111 and 12.7961 and -15.5834 and 17.8548 and 27.4178 and 14.9457 and -4.6938 and 9.499 and 12.5508 and the “response, Fig_S11d dose-response source data” value ([5]; Log[Drug] -11.52) was -7.9428 and 7.113 and -8.1498 and 19.6269 and 38.218 and 27.7856 and 20.6149 and 38.3557 and 9.623. For the same compound, the “response, Fig_S11d dose-response source data” value ([5]; Log[Drug] -12) was -24.8425 and -18.4063 and -14.0215 and 7.974 and -7.6244 and -4.264 and -3.478 and -21.2934 and -10.4999, the EC50 [6] was greater than 10 µM and the EC50 [7] was greater than 10 µM. For the same compound, the “response, Fig_S11e dose-response source data” value [8] was 4.195 and 4.191, the “Emax relative to quinpirole response” value ([8]; DRD2, Tango) was 69.77% and the EC50 ([8]; DRD2, β-arrestin2 recruitment (Tango), read-out: EC50 ± SEM) was 0.591 ± 0.16 µM. For the same compound, the “response, Fig_S11e dose-response source data” value ([8]; Fig_S11e, Log[Drug] -6.52, replicate values) was 29.7819, the “response, Fig_S11e dose-response source data” value ([8]; Fig_S11e, Log[Drug] -7, replicate values) was 14.8195 and 15.4716 and 11.9245 and 14.4902 and 10.6077 and 13.3375 and 15.5705 and 13.1474 and 10.3991 and the “response, Fig_S11e dose-response source data” value ([8]; Fig_S11e, Log[Drug] -7.52, replicate values) was 5.649 and 7.617 and 8.153 and 5.088 and 5.357 and 5.685 and 6.459 and 7.136 and 7.327. The “response, Fig_S11e dose-response source data” value ([8]; Fig_S11e, Log[Drug] -8, replicate values) was 4.53 and 4.924 and 7.437 and 4.448 and 4.588 and 4.761 and 4.942 and 5.222 and 4.354, the “response, Fig_S11e dose-response source data” value ([8]; Fig_S11e, Log[Drug] -8.52, replicate values) was 5.418 and 3.578 and 5.097 and 4.558 and 4.204 and 3.944 and 4.259 and 4.448 and the “response, Fig_S11e dose-response source data” value ([8]; Fig_S11e, Log[Drug] -9, replicate values) was 5.551 and 4.294 and 3.766 and 4.187 and 3.973 and 4.022 and 3.996 and 4.409 and 5.115. For the same compound, the “response, Fig_S11e dose-response source data” value ([8]; Fig_S11e, Log[Drug] -9.52, replicate values) was 3.774 and 3.895 and 3.825 and 3.992 and 4.187 and 3.4742 and 3.994 and 4.11, the “response, Fig_S11e dose-response source data” value ([8]; Fig_S11e, Log[Drug] -10, replicate values) was 3.543 and 4.048 and 4.417 and 4.083 and 4.005 and 3.8893 and 4.472 and 4.295 and 4.703 and the “response, Fig_S11e dose-response source data” value ([8]; Fig_S11e, Log[Drug] -10.52, replicate values) was 4.321 and 3.611 and 3.873 and 3.908 and 3.996 and 3.919 and 3.699 and 4.48 and 4.116. For the same compound, the “response, Fig_S11e dose-response source data” value ([8]; Fig_S11e, Log[Drug] -11, replicate values) was 3.51 and 3.391 and 4.782 and 4.294 and 4.024 and 3.997 and 3.756 and 4.401 and 4.222, the “response, Fig_S11e dose-response source data” value ([8]; Fig_S11e, Log[Drug] -11.52, replicate values) was 3.707 and 4 and 3.724 and 4.053 and 3.84 and 3.862 and 4.291 and 4.0833 and 3.6644 and the “response, Fig_S11e dose-response source data” value ([8]; Fig_S11e, Log[Drug] -12, replicate values) was 4.3048 and 3.879 and 4.62 and 3.975 and 4.688 and 4.168 and 3.647 and 4.316 and 4.328. For the same compound, the EC50 [9] was greater than 10 µM, the EC50 [10] was greater than 10 µM and the EC50 [11] was greater than 10 µM. For the same compound, the EC50 [12] was greater than 10 µM, the “pKi ± SEM” value ([13]; DRD2 F1103.28A) was 6.03±0.14 and the Ki ([13]; DRD2 F1103.28A, read-out: Ki) was 0.93 µM. The “affinity increase (binding enhanced), mutant vs wild type” value ([13]; DRD2 Phe110^3.28Ala vs wild-type DRD2) was 10.27 fold, the EC50 [14] was 0.05 ± 0.04 nM and the “Emax relative to quinpirole response” value [14] was 13.66%. For the same compound, the EC50 [15] was greater than 10 µM.

For `Cc1nc2n(c(=O)c1CCN1CCC(c3noc4cc(F)ccc34)CC1)CCCC2` [risperidone], the “effect of Phe110^3.28Ala mutation on binding” value [16] is listed as “did not enhance the binding; also recorded: didn’t enhance the binding”.

From PMC7044277 (Nature Communications, 2020)
